{"source": "patent US8367729B2", "about": "“Composition with preventive or improvement effect on symptoms or diseases associated with stress-induced behavior disorders” (Suntory Holdings Limited, priority 2004, dated 2013)", "key": {"[1]": {"test_system": "mice subjected to restraint stress", "assay": "Behavioral observation test (Irwin neurobehavioral test method) after 6-hour restraint stress", "assay_type": "in vivo, male ICR mice", "conditions": "conclusion of Example 3", "description": "The experimental groups consisted of 51 two- to three-month-old male ICR mice, divided into a control diet group (27 mice) and a TG[…]-containing diet group (24 mice), with the control diet or TG[…]-containing diet shown in Table 1 being given to each group. Each group was further divided into non-restrained groups (non-restrained control diet group (9), non-restrained arachidonic acid (ARA) diet group (12)) and restrained groups (restrained control diet group (18), restrained ARA diet group (12)). The restraining was accomplished using a wire mesh restraining tube, once for a 6 hour period three weeks after the start of feeding. The control diet or TG[…]-containing diet shown in Table 1 continued to be fed to each group for the remaining experiment period. The TG[…] used for the TG[…]-containing diet was the product obtained in Example 1. Since the daily ingestion was approximately 5 g per mouse, the daily intake of TG[…] was 25 mg per mouse. Also, since the total fatty acids bonded to the arachidonic acid-containing oils or fats (triglycerides) prepared in Example 1 included 40 wt % arachidonic acid, the daily intake of arachidonic acid was 10 mg per mouse. The 6-hour restraint with a wire mesh restraining tube was immediately followed by a behavioral observation test. […]"}, "[2]": {"test_system": "IL-1β induced stress anxiety behavior models", "conditions": "administration of free arachidonic acid; J Lipid Res. 44, 1984, 2003; cited from earlier work"}}}
{"smiles": "CCCCC/C=C\\C/C=C\\C/C=C\\C/C=C\\CCCC(=O)O", "note": "[arachidonic acid]", "values": [{"measurement": "overall effect on behavioral patterns altered as a result of stress", "setting": "[1]", "result": "exhibits an improving effect against behavioral disorders"}, {"measurement": "effect on IL-1β induced stress anxiety behavior", "setting": "[2]", "result": "not effective"}]}
